Patent US9308215B2, “Avermectins and milbemycins as anti-mycobacterial agents” (priority 2013, dated 2016)
≈ marks a conversion by molar mass, not a printed value. Read-outs that look alike come from different tables or passages of the source.

Legend:
E. coli = experiment: microbe, parasite or virus in culture; assay type: cell-based, Escherichia coli; conditions: strain O157:H7, WT
A. baumannii = experiment: microbe, parasite or virus in culture; assay type: cell-based, Acinetobacter baumannii; conditions: strain ATCC 1960, WT
P. aeruginosa = experiment: microbe, parasite or virus in culture; assay type: cell-based, Pseudomonas aeruginosa; conditions: strain PA01 (H103), WT
S. lividans = experiment: microbe, parasite or virus in culture; assay type: cell-based, Streptomyces lividans; conditions: strain 1326, WT
R. jostii = experiment: microbe, parasite or virus in culture; assay type: cell-based, Rhodococcus jostii; conditions: strain RHA1, WT
K. rhizophila = experiment: microbe, parasite or virus in culture; assay type: cell-based, Kocuria rhizophila; conditions: WT
S. aureus = experiment: microbe, parasite or virus in culture; assay type: cell-based, Staphylococcus aureus; conditions: strain ATCC 25923, WT
M. smegmatis = experiment: microbe, parasite or virus in culture; assay type: cell-based, Mycobacterium smegmatis; conditions: strain mc^2155, WT
M. bovis BCG = experiment: microbe, parasite or virus in culture; assay type: cell-based, Mycobacterium bovis
M. tuberculosis = experiment: microbe, parasite or virus in culture; assay type: cell-based, Mycobacterium tuberculosis; conditions: for MIC90: Mycobacterium tuberculosis
M. aurum = experiment: MIC against mycobacterial species; assay type: cell-based; conditions: M. aurum
M. avium = experiment: MIC against mycobacterial species; assay type: cell-based, Mycobacterium avium
M. chelonae = experiment: MIC against mycobacterial species; assay type: cell-based; conditions: M. chelonae
M. gordonae = experiment: MIC against mycobacterial species; assay type: cell-based; conditions: M. gordonae 324
M. intracellulare = experiment: MIC against mycobacterial species; assay type: cell-based
M. microti = experiment: microbe, parasite or virus in culture; assay type: cell-based
M. phlei = experiment: MIC against mycobacterial species; assay type: cell-based; conditions: M. phlei
[1] = Humans, oral, cited from earlier work
[2] = Dogs, 250 μg/kg oral; cited from earlier work
[3] = mice; cited from earlier work
[4] = rats; cited from earlier work
[5] = single dose, cited from earlier work
[6] = ivermectin: extra-label use; selamectin, moxidectin: therapeutic doses; cited from earlier work
[7] = test system: representative Gram-positive and Gram-negative bacteria; assay type: cell-based

Question: With CO/N=C1\C[C@]2(C[C@@H]3C[C@@H](C/C=C(\C)C[C@@H](C)/C=C/C=C4\CO[C@@H]5[C@H](O)C(C)=C[C@@H](C(=O)O3)[C@]45O)O2)O[C@H](/C(C)=C/C(C)C)[C@H]1C [Moxidectin] as the compound, how does the MIC90 (E. coli; Escherichia coli, read-out: In vitro MIC90) read?
Answer: > 256 µg/mL

Question: And the MIC90 (A. baumannii; Acinetobacter baumannii, ATCC1960, read-out: In vitro MIC90)?
Answer: > 256 µg/mL

Question: And the MIC90 (P. aeruginosa; Pseudomonas aeruginosa, read-out: In vitro MIC90)?
Answer: > 256 µg/mL

Question: And the MIC90 (S. lividans; Streptomyces lividans, read-out: In vitro MIC90)?
Answer: > 256 µg/mL

Question: What about the MIC90 (R. jostii; Rhodococcus jostii, read-out: In vitro MIC90) of the same compound?
Answer: > 256 µg/mL

Question: What about the MIC90 (K. rhizophila; Kocuria rhizophila, read-out: In vitro MIC90) of the same compound?
Answer: > 256 µg/mL

Question: And the MIC90 (S. aureus; Staphylococcus aureus, ATCC25923, read-out: In vitro MIC90)?
Answer: > 256 µg/mL

Question: And the MIC90 (M. smegmatis; Mycolicibacterium smegmatis, read-out: In vitro MIC90)?
Answer: 4 µg/mL (≈ 6.25 µM)

Question: What about the MIC90 (M. bovis BCG; Mycobacterium tuberculosis variant bovis BCG, BCG, read-out: In vitro MIC90) of the same compound?
Answer: 4 µg/mL (≈ 6.25 µM)

Question: What about the MIC90 (M. tuberculosis; ERDMAN, read-out: In vitro MIC90, strain Erdman, WT) of the same compound?
Answer: 2 to 4 µg/mL (≈ 3.13 to 6.25 µM)

Question: What about the MIC90 (M. tuberculosis; read-out: In vitro MIC90, strain 1254, WT) of the same compound?
Answer: 4 µg/mL (≈ 6.25 µM)

Question: And the MIC90 (M. tuberculosis; read-out: In vitro MIC90, strain BC-DS1 (drug-susceptible))?
Answer: 4 µg/mL (≈ 6.25 µM)

Question: What about the MIC90 (M. tuberculosis; read-out: In vitro MIC90, strain BC-DS3 (drug-susceptible)) of the same compound?
Answer: 2 µg/mL (≈ 3.13 µM)

Question: What about the MIC90 (M. tuberculosis; read-out: In vitro MIC90, strain BC-DS4 (drug-susceptible)) of the same compound?
Answer: 2 µg/mL (≈ 3.13 µM)

Question: What about the MIC90 (M. tuberculosis; read-out: In vitro MIC90, strain BC-DS5 (drug-susceptible)) of the same compound?
Answer: 2 to 4 µg/mL (≈ 3.13 to 6.25 µM)

Question: And the MIC90 (M. tuberculosis; read-out: In vitro MIC90, strain CDC 1551, WT)?
Answer: 2 µg/mL (≈ 3.13 µM)

Question: And the MIC (M. aurum; Mycolicibacterium aurum, read-out: MIC)?
Answer: 1 µg/mL (≈ 1.56 µM)

Question: What about the MIC (M. avium; Mycobacterium avium) of the same compound?
Answer: > 256 µg/mL

Question: And the MIC (M. avium; Mycobacterium avium, ATCC25291, M. avium ATCC 25291, read-out: MIC)?
Answer: > 128 µg/mL

Question: And the MIC (M. avium; Mycobacterium avium, M. avium 715)?
Answer: > 256 µg/mL

Question: What about the MIC (M. chelonae; Mycobacteroides chelonae, read-out: MIC) of the same compound?
Answer: 4 µg/mL (≈ 6.25 µM)

Question: What about the MIC (M. gordonae; Mycobacterium gordonae, read-out: MIC) of the same compound?
Answer: 4 µg/mL (≈ 6.25 µM)

Question: What about the MIC (M. intracellulare; Mycobacterium intracellulare, M. intracellulare D673) of the same compound?
Answer: > 256 µg/mL

Question: And the MIC (M. intracellulare; Mycobacterium intracellulare, M. intracellulare FM)?
Answer: > 256 µg/mL

Question: And the MIC (M. intracellulare; Mycobacterium intracellulare, M. intracellulare 1403 ATCC35761, read-out: MIC)?
Answer: 16 µg/mL (≈ 25 µM)

Question: What about the MIC (M. intracellulare; Mycobacterium intracellulare, M. intracellulare 1403 Trudeau, read-out: MIC) of the same compound?
Answer: 32 µg/mL (≈ 50 µM)

Question: And the MIC (M. microti; M. microti 1601, read-out: MIC)?
Answer: 4 µg/mL (≈ 6.25 µM)

Question: What about the MIC (M. microti; M. microti 1608, read-out: MIC) of the same compound?
Answer: 4 µg/mL (≈ 6.25 µM)

Question: What about the MIC (M. microti; M. microti Ov254, read-out: MIC) of the same compound?
Answer: 4 µg/mL (≈ 6.25 µM)

Question: What about the MIC (M. phlei; Mycolicibacterium phlei, read-out: MIC) of the same compound?
Answer: 8 µg/mL (≈ 12.5 µM)

Question: What about the AUC ([1]; 3 mg fast) of the same compound?
Answer: 1442 ng·h/mL

Question: And the Cmax ([1]; 3 mg fast)?
Answer: 22.4 ng/mL

Question: What about the T½ ([1]; 3 mg fast) of the same compound?
Answer: 33.8 days

Question: And the AUC ([1]; 9 mg fast)?
Answer: 3024 ng·h/mL

Question: What about the Cmax ([1]; 9 mg fast) of the same compound?
Answer: 57.9 ng/mL

Question: And the T½ ([1]; 9 mg fast)?
Answer: 34.6 days

Question: What about the AUC ([1]; 18 mg fast) of the same compound?
Answer: 5856 ng·h/mL

Question: And the Cmax ([1]; 18 mg fast)?
Answer: 141 ng/mL

Question: And the T½ ([1]; 18 mg fast)?
Answer: 22 days

Question: What about the AUC ([1]; 36 mg fast) of the same compound?
Answer: 10824 ng·h/mL

Question: And the Cmax ([1]; 36 mg fast)?
Answer: 289 ng/mL

Question: What about the T½ ([1]; 36 mg fast) of the same compound?
Answer: 20.2 days

Question: What about the AUC ([1]; 36 mg fed) of the same compound?
Answer: 14976 ng·h/mL

Question: What about the Cmax ([1]; 36 mg fed) of the same compound?
Answer: 296 ng/mL

Question: What about the T½ ([1]; 36 mg fed) of the same compound?
Answer: 25.7 days

Question: What about the AUC [2] of the same compound?
Answer: 11800 ng·h/mL

Question: And the Cmax [2]?
Answer: 234 ng/mL

Question: What about the T½ [2] of the same compound?
Answer: 25.9 days

Question: What about the LD50 [3] of the same compound?
Answer: 84 mg/kg body weight

Question: What about the LD50 [4] of the same compound?
Answer: 106 mg/kg body weight

Question: And the “dose reported safe in humans” value ([5]; clinical studies)?
Answer: up to 36 mg

Question: What about the “dose reported not safe in humans” value [5] of the same compound?
Answer: 54 mg

Question: What about the “toxicity in dogs lacking MDR1 P-glycoprotein / homozygous MDR1 mutation” value [6] of the same compound?
Answer: without any signs of toxicosis

Question: With CO[C@H]1C[C@H](O[C@H]2[C@H](C)O[C@@H](O[C@@H]3/C(C)=C/C[C@@H]4C[C@@H](C[C@]5(C=C[C@H](C)[C@@H](C6CCCCC6)O5)O4)OC(=O)[C@@H]4C=C(C)[C@@H](O)[C@H]5OC/C(=C\C=C\[C@@H]3C)[C@]54O)C[C@@H]2OC)O[C@@H](C)[C@@H]1O [Doramectin] as the compound, how does the “In vitro MIC90” value (E. coli) read?
Answer: >256 µg/mL

Question: And the “In vitro MIC90” value (A. baumannii)?
Answer: >256 µg/mL

Question: What about the “In vitro MIC90” value (P. aeruginosa) of the same compound?
Answer: >256 µg/mL

Question: And the “In vitro MIC90” value (S. lividans)?
Answer: >256 µg/mL

Question: What about the “In vitro MIC90” value (R. jostii) of the same compound?
Answer: >256 µg/mL

Question: And the “In vitro MIC90” value (K. rhizophila)?
Answer: >256 µg/mL

Question: And the “In vitro MIC90” value (S. aureus)?
Answer: >256 µg/mL

Question: And the “In vitro MIC90” value (M. smegmatis)?
Answer: 128 µg/mL

Question: And the “In vitro MIC90” value (M. bovis BCG; strain BCG Pasteur, WT)?
Answer: 8 µg/mL

Question: What about the level of activity (M. tuberculosis; against all Mycobacterium species, MTT) of the same compound?
Answer: lower levels of activity

Question: What about the “In vitro MIC90” value (M. tuberculosis; strain 1254, WT) of the same compound?
Answer: 8 to 16 µg/mL

Question: What about the “In vitro MIC90” value (M. tuberculosis; strain CDC 1551, WT) of the same compound?
Answer: 4 to 8 µg/mL

Question: What about the “In vitro MIC90” value (M. tuberculosis; strain Erdman, WT) of the same compound?
Answer: 8 µg/mL

Question: And the “In vitro MIC90” value (M. tuberculosis; strain H37Rv, WT)?
Answer: 8 µg/mL

Question: And the Inhibitory effects [7]?
Answer: not observed

Question: With Abamectin as the compound, how does the MIC (M. aurum) read?
Answer: 8 µg/mL

Question: And the MIC (M. avium; M. avium 702)?
Answer: >256 µg/mL

Question: What about the MIC (M. avium; M. avium 715) of the same compound?
Answer: >256 µg/mL

Question: And the MIC (M. chelonae)?
Answer: 16 µg/mL

Question: And the MIC (M. gordonae)?
Answer: 16 µg/mL

Question: What about the MIC (M. intracellulare; M. intracellulare 1403 ATCC35761) of the same compound?
Answer: 16 µg/mL

Question: What about the MIC (M. intracellulare; M. intracellulare 1403 Trudeau) of the same compound?
Answer: 16 µg/mL

Question: And the MIC (M. intracellulare; M. intracellulare D673)?
Answer: 32 µg/mL

Question: What about the MIC (M. intracellulare; M. intracellulare FM) of the same compound?
Answer: 16 µg/mL

Question: What about the MIC (M. microti; M. microti 1601) of the same compound?
Answer: 16 µg/mL

Question: And the MIC (M. microti; M. microti 1608)?
Answer: 64 µg/mL

Question: What about the MIC (M. microti; M. microti Ov254) of the same compound?
Answer: 256 µg/mL

Question: What about the MIC (M. phlei) of the same compound?
Answer: >256 µg/mL
